The text below walks through data of patent US7320975B2, “2-(2-pyridyl)-5-phenyl-6-aminopyrimidine, method and intermediate products for the production and use thereof for combating noxious fungi” (BASF Aktiengesellschaft, priority 2002, dated 2008).

A short description of the data set: Lipophilicity parameter log Pow by RP HPLC run time method (OECD test guidelines). The data set is classed as physicochemical. On the procedure: The determination of the lipophilicity parameter log Pow (Table I) was carried out in accordance with OECD test guidelines using the RP HPLC run time method.
To this end, a log k′/log Pow correlation curve based on ten reference substances was plotted and was validated with the help of the lipophilicity parameters of eight comparison substances established through the extraction method.
A commercially available reversed-phase C18 stationary phase was used as stationary phase. Chromatographic separation was carried out with methanol and a buffer solution as mobile phase at pH 7.4 under isocratic conditions.
The retention times of the standards tR were converted in accordance with equation Φ into the capacity factors k′, in which t0, as reaction time of the solvent unretarded on the reversed-phase C18 stationary phase, represents the dead time of the chromatographic system:
The linear correlation of the log k′ values with the log Pow values of the standards published in the appendix to the guidelines 92/69/EEC yields the correlation curve through linear regression.
The lipophilicity parameters log Pow of the analytes were after calculation of the logarithmic capacity factor log k′ interpolated from the correlation curve of the standards.

The mark [1] stands for this setting: RP HPLC run time method (OECD test guidelines).
Setting [2] is: RP HPLC run time method, OECD test guidelines.

As for `CCN(CC)c1nc(-c2ncccc2C)nc(Cl)c1-c1c(F)cc(F)cc1F` [I-117], the “log Pow” value under setting [1] was “logP 4.6” and the “log Pow” value under setting [2] was “logP 4.6”.

As for `CCNc1nc(-c2ccccn2)nc(Cl)c1-c1ccc(C)cc1C` [I-90], the “log Pow” value is “logP 4.6” under setting [1] and “logP 4.6” under setting [2].

For the molecule `Cc1ccc(-c2c(Cl)nc(-c3ccccn3)nc2NC(C)C)c(F)c1` [I-94], the “log Pow” value under setting [1] is “logP 4.8” and the “log Pow” value under setting [2] is given as “logP 4.8”.

Turning to `CCN(CC)c1nc(-c2ccccn2)nc(Cl)c1-c1c(F)cc(F)cc1F` [1-9], the “log Pow” value under setting [1] was “log Pow 4.08”.

For the molecule `C[C@H](Nc1nc(-c2ccccn2)nc(Cl)c1-c1c(F)cc(F)cc1F)C(C)(C)C` [1-10], under setting [1], the “log Pow” value is “log Pow 4.75”.

Turning to `CC(C)[C@H](C)Nc1nc(-c2ccccn2)nc(Cl)c1-c1c(F)cccc1F` [I-82], the “log Pow” value is “logP 5.0” under setting [1] and “logP 5.0” under setting [2].

With `C[C@@H](Nc1nc(-c2ccccn2)nc(Cl)c1-c1c(F)cccc1Cl)C(C)(C)C` [I-7], the “log Pow” value by setting is: under setting [1], “log Pow 4.8”; under setting [2], “logPow 4.8”.

As for `CCN(CC)c1nc(-c2ccccn2)nc(Cl)c1-c1c(F)cccc1F` [I-81], the “log Pow” value is “logP 4.7” under setting [1] and “logP 4.7” under setting [2].

For the molecule `CC(C)[C@@H](C)Nc1nc(-c2ccccn2)nc(Cl)c1-c1c(F)cccc1F` [I-84], the “log Pow” value reads like this: under setting [1], “logP 5.0”; under setting [2], “logP 5.0”.

For `CCN(CC)c1nc(-c2ccccn2)nc(Cl)c1-c1c(F)cc(OC)cc1F` [I-64], the “log Pow” value is given as “logP 5.0” under setting [1] and “logP 5.0” under setting [2].

Consider `Cc1cccc(-c2nc(Cl)c(-c3c(F)cc(F)cc3F)c(N3CCOCC3)n2)n1` [I-24], for which the “log Pow” value is, setting by setting: under setting [1], “log Pow 4.25”; under setting [2], “logPow 4.25”.

Consider `CC(C)Nc1nc(-c2ccccn2)nc(Cl)c1-c1c(F)cc(O)cc1F` [I-70], for which the “log Pow” value is given as “log.P 3.0” under setting [1] and “log.P 3.0” under setting [2].

For `CCNc1nc(-c2ccccn2)nc(Cl)c1-c1ccc(F)cc1C` [I-114], the “log Pow” value is reported as “logP 4.1” under setting [1] and “logP 4.1” under setting [2].

Take `C[C@H](Nc1nc(-c2ccccn2)nc(Cl)c1-c1c(F)cc(F)cc1F)C(F)(F)F` [I-12]: the “log Pow” value is, setting by setting: under setting [1], “log Pow 4.5”; under setting [2], “logPow 4.5”.

Consider `CC(C)Nc1nc(-c2ccccn2)nc(Cl)c1-c1c(F)cccc1Cl` [I-3], for which the “log Pow” value reads like this: under setting [1], “log Pow 3.59”; under setting [2], “logPow 3.59”.

Take `C=C(C)CN(CC)c1nc(-c2ccccn2)nc(Cl)c1-c1c(F)cccc1Cl` [I-2]: the “log Pow” value under setting [1] is listed as “log Pow 4.73” and the “log Pow” value under setting [2] is given as “logPow 4.73”.

For the molecule `CCNc1nc(-c2ccccn2)nc(Cl)c1-c1c(F)cc(OC)cc1F` [I-65], the “log Pow” value was “logP 4.0” under setting [1] and “logP 4.0” under setting [2].

`CCN(CC)c1nc(-c2ccccn2)nc(Cl)c1-c1c(F)cccc1Cl` [I-5]: the “log Pow” value is, setting by setting: under setting [1], “log Pow 4.23”; under setting [2], “logPow 4.23”.

For `CC(C)Nc1nc(-c2ccccn2)nc(Cl)c1-c1c(F)cccc1F` [I-83], the “log Pow” value is “logP 4.1” under setting [1] and “logP 4.1” under setting [2].

As for `CCN(CC)c1nc(-c2ccccn2)nc(Cl)c1-c1c(F)cc(F)cc1F` [I-9], the “log Pow” value under setting [2] is on record as “logPow 4.08”.
